From the NIST ThermoML archive (doi:10.1021/je7000039)
Numbers after ± are expanded uncertainties.

Conditions: Crystal; DTA

Compound | Normal melting temperature [°C]
C[C@@H]1CC[C@H]2[C@@H](C)C(=O)O[C@@H]3O[C@@]4(C)CC[C@@H]1[C@]32OO4 [artemisinin] | 148.28 ± 0.5
C[C@H]1[C@H](OC(=O)CCC(=O)O)O[C@@H]2O[C@@]3(C)CC[C@H]4[C@H](C)CC[C@@H]1[C@@]24OO3 [artesunate] | 139.66 ± 0.5
CO[C@H]1O[C@@H]2O[C@@]3(C)CC[C@H]4[C@H](C)CC[C@@H]([C@H]1C)[C@@]24OO3 [beta-artemether] | 83.98 ± 0.5
